Measurements published in ChEMBL document CHEMBL4483862, “Open-source discovery of chemical leads for next-generation chemoprotective antimalarials” (2018).

Test system: Plasmodium berghei
Test: Luciferase/luciferin-expressing antifolate-resistant parasites were used to infect a culture of HepG2 cells that were pre-incubated with compounds. Infected hepatocytes emit light due to the luciferase reaction. Assay results are presented as the percent inhibition of light emission compared to control. […]
Format: functional
Settings: sporozoite; for IC90: read-out: LUCIFERASE INFECTION ASSAY - IC90

SMILES	IC90	further results
COc1ccc(C(C)(C)C)cc1NC(=O)c1ccc(Cl)c(S(=O)(=O)N2CCc3ccccc32)c1	> 10 µM	IC50 (FFLUC_HILL_SLOPE 21.6, FFLUC_R_SQUARED 0.0861, HEPG2TOX_HILL_SLOPE 0.0233, HEPG2TOX_R_SQUARED 0.0468, PBLUC_HILL_SLOPE 7.45, PBLUC_R_SQUARED 0.387, read-out: LUCIFERASE INFECTION ASSAY - IC50): 8.38 µM
Oc1c(Cn2c(=S)sc3ccccc32)cc(Cl)c2cccnc12	1.24 µM	IC50 (FFLUC_HILL_SLOPE 19.2, FFLUC_R_SQUARED 0.535, HEPG2TOX_HILL_SLOPE 1.74, 1.21, HEPG2TOX_R_SQUARED 0.199, 0.803, PBLUC_HILL_SLOPE 4.66, PBLUC_R_SQUARED 0.802, read-out: LUCIFERASE INFECTION ASSAY - IC50): 0.772 µM
Nc1c(C(=O)c2ccccc2O)cnn1-c1ccccc1C(F)(F)F	3.04 µM	IC50 (FFLUC_HILL_SLOPE 18.9, FFLUC_R_SQUARED 0.573, PBLUC_HILL_SLOPE 1.34, PBLUC_R_SQUARED 0.647, read-out: LUCIFERASE INFECTION ASSAY - IC50): 0.594 µM
Clc1cccc(-c2[nH]nc3nccc(-c4ccc(N5CCNCC5)cc4)c23)c1	4.08 µM	IC50 (FFLUC_HILL_SLOPE 19.9, FFLUC_R_SQUARED 0.198, HEPG2TOX_HILL_SLOPE 3.67, HEPG2TOX_R_SQUARED 0.922, PBLUC_HILL_SLOPE 10.3, PBLUC_R_SQUARED 0.464, read-out: LUCIFERASE INFECTION ASSAY - IC50): 3.3 µM
CN(c1ccccc1)S(=O)(=O)c1ccc(C(=O)Nc2nc(-c3cc(Cl)sc3Cl)cs2)cc1	8.48 µM	IC50 (FFLUC_HILL_SLOPE 19.7, FFLUC_R_SQUARED 0.521, HEPG2TOX_HILL_SLOPE 3.83, HEPG2TOX_R_SQUARED 0.989, PBLUC_HILL_SLOPE 4.8, PBLUC_R_SQUARED 0.68, read-out: LUCIFERASE INFECTION ASSAY - IC50): 5.36 µM
CCC(C)NC(=O)c1c(NC(=O)c2cccc(OC)c2)nc2ccc(C)cn12 (stereo not given)	> 8.67 µM	IC50 (FFLUC_HILL_SLOPE 19.6, FFLUC_R_SQUARED 0.348, HEPG2TOX_HILL_SLOPE 6.15, HEPG2TOX_R_SQUARED 0.729, PBLUC_HILL_SLOPE 3.4, PBLUC_R_SQUARED 0.659, read-out: LUCIFERASE INFECTION ASSAY - IC50): 5.09 µM
COc1cc2c(cc1OC)C(c1cccs1)N(CC(=O)Nc1ccccc1C(F)(F)F)CC2 (stereo not given)	> 10 µM	IC50 (FFLUC_HILL_SLOPE 19.7, FFLUC_R_SQUARED 0.151, HEPG2TOX_HILL_SLOPE 1.77, HEPG2TOX_R_SQUARED 0.955, PBLUC_HILL_SLOPE 2.27, PBLUC_R_SQUARED 0.356, read-out: LUCIFERASE INFECTION ASSAY - IC50): 5.2 µM
O=C1C=CC(=O)N1c1ccccc1OC(F)(F)F	> 12.8 µM	IC50 (FFLUC_HILL_SLOPE 21.4, FFLUC_R_SQUARED 0.595, PBLUC_HILL_SLOPE 3.16, PBLUC_R_SQUARED 0.111, read-out: LUCIFERASE INFECTION ASSAY - IC50): 8.21 µM
O=C(OCc1csc(-c2ccccc2)n1)c1cc(O)c2ccccc2c1O	> 10 µM	IC50 (FFLUC_HILL_SLOPE 21.7, FFLUC_R_SQUARED 0.124, read-out: LUCIFERASE INFECTION ASSAY - IC50): > 10 µM
COc1ccc(-c2cnc3ccc(-c4cccc(OC(F)(F)F)c4)nn23)cc1OC	1.23 µM	IC50 (FFLUC_HILL_SLOPE 21.1, FFLUC_R_SQUARED 0.421, PBLUC_HILL_SLOPE 16.1, PBLUC_R_SQUARED 0.675, read-out: LUCIFERASE INFECTION ASSAY - IC50): 1.08 µM
CCCCNC(=O)c1c(NC(=O)c2ccc(F)cc2)nc2ccccn12	3.43 µM	IC50 (FFLUC_HILL_SLOPE 20.6, FFLUC_R_SQUARED 0.0581, HEPG2TOX_HILL_SLOPE 2.28, HEPG2TOX_R_SQUARED 0.75, PBLUC_HILL_SLOPE 12.8, PBLUC_R_SQUARED 0.452, read-out: LUCIFERASE INFECTION ASSAY - IC50): 2.88 µM
Cc1cccc(NC(=O)NC(=O)CSc2ccc(S(=O)(=O)N(C)C)cn2)c1C	> 10 µM	IC50 (FFLUC_HILL_SLOPE 22.1, FFLUC_R_SQUARED 0.241, read-out: LUCIFERASE INFECTION ASSAY - IC50): > 10 µM
Cc1ccnc(NC(c2cccc(C)n2)c2ccc3cccnc3c2O)c1 (stereo not given)	> 9.26 µM	IC50 (FFLUC_HILL_SLOPE 20.2, FFLUC_R_SQUARED 0.523, HEPG2TOX_HILL_SLOPE 12.4, HEPG2TOX_R_SQUARED 0.193, PBLUC_HILL_SLOPE 13.3, PBLUC_R_SQUARED 0.0907, read-out: LUCIFERASE INFECTION ASSAY - IC50): 7.89 µM
O=c1c(Cl)c(Cl)cnn1Cc1nc2cc(Cl)ccc2n1Cc1ccccc1	> 10 µM	IC50 (FFLUC_HILL_SLOPE 21.9, FFLUC_R_SQUARED 0.587, HEPG2TOX_HILL_SLOPE 12.6, HEPG2TOX_R_SQUARED 0.77, read-out: LUCIFERASE INFECTION ASSAY - IC50): > 10 µM
NC(=NNC(=S)Nc1ccccc1C(F)(F)F)c1ccccn1	2.78 µM	IC50 (FFLUC_HILL_SLOPE 21.9, FFLUC_R_SQUARED 0.597, HEPG2TOX_HILL_SLOPE 0.969, HEPG2TOX_R_SQUARED 0.909, PBLUC_HILL_SLOPE 1.81, PBLUC_R_SQUARED 0.836, read-out: LUCIFERASE INFECTION ASSAY - IC50): 0.826 µM
N#CC(C#N)=C/C=C(/Sc1nc(-c2ccccc2)cs1)c1ccc(Cl)cc1	> 8.13 µM	IC50 (FFLUC_HILL_SLOPE 19.5, FFLUC_R_SQUARED 0.704, PBLUC_HILL_SLOPE 6.45, PBLUC_R_SQUARED 0.183, read-out: LUCIFERASE INFECTION ASSAY - IC50): > 8.13 µM
CC(C)c1ccc2c(c1)/C(=N/NC(=S)NCCc1ccccc1)C(=O)N2	8.12 µM	IC50 (FFLUC_HILL_SLOPE 19.2, FFLUC_R_SQUARED 0.695, HEPG2TOX_HILL_SLOPE 7.84, HEPG2TOX_R_SQUARED 0.253, PBLUC_HILL_SLOPE 4.58, PBLUC_R_SQUARED 0.343, read-out: LUCIFERASE INFECTION ASSAY - IC50): 5.02 µM
Cc1ccc(Cn2nc(C)cc2C(=O)Sc2ccc(Cl)cc2)cc1	> 9.25 µM	IC50 (FFLUC_HILL_SLOPE 19.8, FFLUC_R_SQUARED 0.763, PBLUC_HILL_SLOPE 2.54, PBLUC_R_SQUARED 0.663, read-out: LUCIFERASE INFECTION ASSAY - IC50): 5.77 µM
Cc1nc(N2N=C3/C(=C/c4ccc(F)cc4)CCCC3C2c2ccc(F)cc2)sc1C(=O)O (stereo not given)	> 10 µM	IC50 (FFLUC_HILL_SLOPE 19.4, FFLUC_R_SQUARED 0.522, read-out: LUCIFERASE INFECTION ASSAY - IC50): > 10 µM
O=c1cc(CSc2nc3ccccc3c(=O)n2Cc2ccccc2)c2cc(O)c(O)cc2o1	> 10 µM	IC50 (FFLUC_HILL_SLOPE 22, FFLUC_R_SQUARED 0.332, read-out: LUCIFERASE INFECTION ASSAY - IC50): > 10 µM
O=S(=O)(c1cc(C(F)(F)F)cc(C(F)(F)F)c1)N1CCC(C(c2ccccc2)c2ccccc2)CC1	> 6.26 µM	IC50 (FFLUC_HILL_SLOPE 21.5, FFLUC_R_SQUARED 0.833, read-out: LUCIFERASE INFECTION ASSAY - IC50): > 6.26 µM
CCn1c(-c2ccccc2)c(C(=O)Cn2ncc(Cl)c(Cl)c2=O)c2ccccc21	> 10 µM	IC50 (FFLUC_HILL_SLOPE 22, FFLUC_R_SQUARED 0.674, read-out: LUCIFERASE INFECTION ASSAY - IC50): > 10 µM
CO/N=C1\CCCc2c(C(=O)N/N=C/c3ccccc3Cl)sc(SC)c21	1.81 µM	IC50 (FFLUC_HILL_SLOPE 19.7, FFLUC_R_SQUARED 0.147, HEPG2TOX_HILL_SLOPE 0.857, HEPG2TOX_R_SQUARED 0.906, PBLUC_HILL_SLOPE 1.47, PBLUC_R_SQUARED 0.897, read-out: LUCIFERASE INFECTION ASSAY - IC50): 0.406 µM
Cc1ccc(C2=NN(C(=O)Cn3nc(C)c(S(=O)(=O)N(C)C)c3C)C(c3ccco3)C2)cc1 (stereo not given)	> 10 µM	IC50 (FFLUC_HILL_SLOPE 21, FFLUC_R_SQUARED 0.497, read-out: LUCIFERASE INFECTION ASSAY - IC50): > 10 µM
CC1Cc2ccccc2N1C(=O)CSC1=NNC(=C2N=Nc3ccccc32)N1c1ccccc1 (stereo not given)	8.33 µM	IC50 (FFLUC_HILL_SLOPE 19.6, FFLUC_R_SQUARED 0.491, PBLUC_HILL_SLOPE 5.23, PBLUC_R_SQUARED 0.568, read-out: LUCIFERASE INFECTION ASSAY - IC50): 5.48 µM
Cn1c(-c2ccco2)nc2cnc(Nc3cccc(C(F)(F)F)c3)cc21	> 10 µM	IC50 (FFLUC_HILL_SLOPE 19, FFLUC_R_SQUARED 0.549, HEPG2TOX_HILL_SLOPE 17, HEPG2TOX_R_SQUARED 0.382, PBLUC_HILL_SLOPE 1.81, PBLUC_R_SQUARED 0.343, read-out: LUCIFERASE INFECTION ASSAY - IC50): 8.8 µM
COc1ccc(O)c(C=C(c2nc3ccccc3s2)c2nc3ccccc3s2)c1	> 10 µM	IC50 (FFLUC_HILL_SLOPE 21.2, FFLUC_R_SQUARED 0.491, read-out: LUCIFERASE INFECTION ASSAY - IC50): > 10 µM
O=c1c(Cl)c(Cl)cnn1-c1c(Cl)cc(C(F)(F)F)cc1Cl	1.61 µM	IC50 (FFLUC_HILL_SLOPE 19, FFLUC_R_SQUARED 0.471, HEPG2TOX_HILL_SLOPE 2.99, HEPG2TOX_R_SQUARED 0.99, PBLUC_HILL_SLOPE 1.54, PBLUC_R_SQUARED 0.797, read-out: LUCIFERASE INFECTION ASSAY - IC50): 0.388 µM
Cc1nn2c(=O)cc(CSc3ccc(Cl)cc3)[nH]c2c1-c1ccccc1	1.17 µM	IC50 (FFLUC_HILL_SLOPE 20.8, FFLUC_R_SQUARED 0.612, HEPG2TOX_HILL_SLOPE 1.69, HEPG2TOX_R_SQUARED 0.683, PBLUC_HILL_SLOPE 14, PBLUC_R_SQUARED 0.557, read-out: LUCIFERASE INFECTION ASSAY - IC50): 0.998 µM
O=C1C=CC(=O)N1c1ccc(Cl)cc1	> 15.9 µM	IC50 (FFLUC_HILL_SLOPE 21.9, FFLUC_R_SQUARED 0.305, PBLUC_HILL_SLOPE 2.09, PBLUC_R_SQUARED 0.529, read-out: LUCIFERASE INFECTION ASSAY - IC50): 12.2 µM
